The test system of experiment [1] is Trypanosoma brucei. Nature of the experiment: Inhibition of Trypanosoma brucei GalE at 50 uM.
The test system of another experiment is CHO-K1. As to the kind of experiment: Cytotoxicity against CHO-K1 cells by Alamar blue assay. In kind it is cell-based. The settings on record: Cricetulus griseus. On the technique in general: The colour change of resazurin is a common sign of viable cells or microbes.
Experiment [2] can be described thus: Inhibition of Trypanosoma brucei GalE after 1 hr by HPAEC assay.
The test system of experiment [3] is Trypanosoma brucei. Nature of the experiment: Cytotoxicity against Trypanosoma brucei by Alamar blue assay. In kind it is organism-based.
A further experiment addresses T1, UDP-glucose 4-epimerase (Homo sapiens, UniProt Q14376).
T1 sequence (Q14376 whole entry): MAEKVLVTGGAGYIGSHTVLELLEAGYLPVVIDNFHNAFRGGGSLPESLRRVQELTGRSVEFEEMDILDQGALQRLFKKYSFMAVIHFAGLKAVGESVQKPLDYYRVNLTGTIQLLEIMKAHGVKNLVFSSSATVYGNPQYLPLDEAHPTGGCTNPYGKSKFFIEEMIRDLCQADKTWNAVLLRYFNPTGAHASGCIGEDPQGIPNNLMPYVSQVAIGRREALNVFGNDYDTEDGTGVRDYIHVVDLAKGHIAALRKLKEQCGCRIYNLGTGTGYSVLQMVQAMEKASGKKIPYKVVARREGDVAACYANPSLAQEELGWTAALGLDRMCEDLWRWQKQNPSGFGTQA
As to the kind of experiment: Inhibition of human GalE by HPAEC assay.

The nature of experiment [4]: Inhibition of Trypanosoma brucei GalE by HPAEC assay.

Each structure is given as a SMILES string. A value given as a limit tells only on which side of the number the result lay.

The inhibition is the share of the control response that was lost under treatment. Low readings indicate little suppression, high ones strong suppression. Usually EC50 stands for the concentration giving half of the maximal effect. Higher therefore signals lower potency in that assay. For orientation: IC50 means the concentration that inhibits the measured activity by half. A high value points to weaker potency in that assay. In the experiment on Trypanosoma brucei [1], `Clc1cc(Cl)c(OCC#CI)cc1Cl` [HALOPROGIN] showed an inhibition above 75%. For the same compound, the EC50 with CHO-K1 turned out to be 0.6 µM; with Trypanosoma brucei [3], 0.3 µM. In addition, the IC50 in experiment [2] was above 100 µM; on UDP-glucose 4-epimerase, 0.5 µM.
Turning to `C=C(CC)C(=O)c1ccc(OCC(=O)O)c(Cl)c1Cl` [ETHACRYNIC ACID], the inhibition in the experiment on Trypanosoma brucei [1] was above 75%. Moreover, the EC50 with CHO-K1 was 56 µM; with Trypanosoma brucei [3] it was 3.3 µM. Further, the IC50 in experiment [4] stood at 3.1 µM; on UDP-glucose 4-epimerase, 14 µM.
Turning to `CC/C(=C(/CC)c1ccc(O)cc1)c1ccc(O)cc1` [DIETHYLSTILBESTROL], the inhibition in the experiment on Trypanosoma brucei [1] was above 75%. In addition, the results for the EC50 in the experiment on CHO-K1 and with Trypanosoma brucei [3] were 8.5 µM and 2.8 µM, respectively. Besides, the IC50 amounted to 17 µM in experiment [4] and 75 µM against UDP-glucose 4-epimerase.
The like results for `O=c1c2ccccc2[se]n1-c1ccccc1` [EBSELEN] were, in that order, above 75%, 6.1 µM, 4.1 µM, 0.62 µM and 0.014 µM.
For `O=C(NCCSSCCNC(=O)/C(Cc1ccc(O)c(Br)c1)=N/O)/C(Cc1ccc(O)c(Br)c1)=N/O` [PSAMMAPLIN A] the same measures were above 75%, 0.9 µM, 2.6 µM, 15 µM and 3.6 µM.
